Literature values, collected in patent US9788539B2, “Platelet protection solution having beta-galactosidase and sialidase inhibitors” (Velico Medical, Inc., priority 2011, dated 2017).

Target: viral, bacterial and mammalian sialidases
Conditions: cited from earlier work

For CC(=O)NC1C(O)C=C(C(=O)O)OC1C(O)C(O)CO (stereo not shown) [DANA], the Ki is listed as “low μM range”.
